# Legend:
# [1] = tested on: Bacillus subtilis No. 10707; assay: Agar-dilution MIC, pH 8.0 (Table 1); assay type: cell-based; details: B. subtilis No. 10707, agar-dilution, pH 8.0, read-out: Minimum Inhibitory Concentration
# [2] = tested on: Staphylococcus aureus ATCC 6538P; assay: Agar-dilution MIC, pH 8.0 (Table 1); assay type: cell-based; details: ATCC6538P, S. aureus ATCC 6538P, agar-dilution, pH 8.0, read-out: Minimum Inhibitory Concentration
# [3] = tested on: Escherichia coli T-5; assay: Agar dilution MIC, pH 7.2 (Table 2); assay type: cell-based; details: T5, E. coli T-5, agar dilution, pH 7.2, read-out: Minimum Inhibitory Concentration
# [4] = tested on: Salmonella typhosa ATCC 9992; assay: Agar-dilution MIC, pH 8.0 (Table 1); assay type: cell-based; details: Salmonella enterica, pH 8, read-out: Minimum Inhibitory Concentration
# [5] = tested on: Pseudomonas aeruginosa BMH 1; assay: Agar dilution MIC, pH 7.2 (Table 2); assay type: cell-based; details: BMH1, P. aeruginosa BMH 1, agar dilution, pH 7.2, read-out: Minimum Inhibitory Concentration
# [6] = Acute toxicity in mice, intravenous injection; details: mouse, in vivo
# [7] = tested on: Pseudomonas aeruginosa BMH 1; assay: Agar-dilution MIC, pH 8.0 (Table 1); assay type: cell-based; details: BMH1, P. aeruginosa BMH 1, agar-dilution, pH 8.0, read-out: Minimum Inhibitory Concentration
# [8] = tested on: Pseudomonas aeruginosa KY 8516; assay: Agar dilution MIC, pH 7.2 (Table 2); assay type: cell-based; details: KY8516, P. aeruginosa KY 8516, probably produces kanamycin acetyltransferase, agar dilution, pH 7.2, read-out: Minimum Inhibitory Concentration
# [9] = tested on: Pseudomonas aeruginosa KY 8511; assay: Agar dilution MIC, pH 7.2 (Table 2); assay type: cell-based; details: KY8511, P. aeruginosa KY 8511, produces gentamicin acetyltransferase Type I and neomycin-kanamycin phosphotransferase Type I, agar dilution, pH 7.2, read-out: Minimum Inhibitory Concentration
# [10] = tested on: Krebsiella pneumoniae ATCC 10031; assay: Agar-dilution MIC, pH 8.0 (Table 1); assay type: cell-based; details: Klebsiella pneumoniae, ATCC10031; K. pneumoniae ATCC 10031; agar-dilution, pH 8.0; read-out: Minimum Inhibitory Concentration
# [11] = tested on: strains of the aforementioned resistant bacteria; assay: Protection tests against infections induced by resistant bacteria; assay type: in vivo
# [12] = tested on: Escherichia coli having R factors; assay: Antibacterial activity against R factor strains; assay type: cell-based; details: E. coli having R factors, resistant to known aminoglycoside antibiotics
# [13] = tested on: Staphylococcus aureus Smith; assay: Agar dilution MIC, pH 7.2 (Table 2); assay type: cell-based; details: S. aureus Smith, agar dilution, pH 7.2, read-out: Minimum Inhibitory Concentration
# [14] = tested on: Proteus mirabilis 1287; assay: Agar dilution MIC, pH 7.2 (Table 2); assay type: cell-based; details: Proteus mirabilis; P. mirabilis 1287; agar dilution, pH 7.2; read-out: Minimum Inhibitory Concentration
# [15] = tested on: Escherichia coli KY 8321; assay: Agar dilution MIC, pH 7.2 (Table 2); assay type: cell-based; details: KY8321, E. coli KY 8321, produces gentamicin adenyltransferase and neomycin-kanamycin phosphotransferase Type II, agar dilution, pH 7.2, read-out: Minimum Inhibitory Concentration
# [16] = tested on: Sarcina lutea ATCC 9341; assay: Agar dilution MIC, pH 7.2 (Table 2); assay type: cell-based; details: Micrococcus luteus, ATCC9341; Sarcina lutea ATCC 9341; agar dilution, pH 7.2; read-out: Minimum Inhibitory Concentration
# [17] = tested on: Bacillus subtilis ATCC 6633; assay: Agar dilution MIC, pH 7.2 (Table 2); assay type: cell-based; details: ATCC6633, B. subtilis ATCC 6633, agar dilution, pH 7.2, read-out: Minimum Inhibitory Concentration
# [18] = tested on: Escherichia coli KY 8348; assay: Agar dilution MIC, pH 7.2 (Table 2); assay type: cell-based; details: KY8348, E. coli KY 8348, produces gentamicin acetyltransferase Type I, read-out: Minimum Inhibitory Concentration
# [19] = tested on: Escherichia coli ATCC 26; assay: Agar-dilution MIC, pH 8.0 (Table 1); assay type: cell-based; details: ATCC26, E. coli ATCC 26, agar-dilution, pH 8.0, read-out: Minimum Inhibitory Concentration
# [20] = tested on: Proteus vulgaris 6897; assay: Agar dilution MIC, pH 7.2 (Table 2); assay type: cell-based; details: Proteus vulgaris; P. vulgaris 6897; agar dilution, pH 7.2; read-out: Minimum Inhibitory Concentration
# [21] = tested on: Staphylococcus aureus 209 P; assay: Agar dilution MIC, pH 7.2 (Table 2); assay type: cell-based; details: S. aureus 209 P, agar dilution, pH 7.2, read-out: Minimum Inhibitory Concentration
# [22] = tested on: Escherichia coli T-2; assay: Agar dilution MIC, pH 7.2 (Table 2); assay type: cell-based; details: T2, E. coli T-2, agar dilution, pH 7.2, read-out: Minimum Inhibitory Concentration
# [23] = tested on: Providencia sp. 164; assay: Agar dilution MIC, pH 7.2 (Table 2); assay type: cell-based; details: Providencia sp. 164, produces gentamicin acetyltransferase Type II, read-out: Minimum Inhibitory Concentration
# [24] = tested on: Escherichia coli KY 8327; assay: Agar dilution MIC, pH 7.2 (Table 2); assay type: cell-based; details: KY8327, E. coli KY 8327, read-out: Minimum Inhibitory Concentration
# [25] = tested on: Klebsiella pneumoniae No. 8045; assay: Agar dilution MIC, pH 7.2 (Table 2); assay type: cell-based; details: K. pneumoniae No. 8045, agar dilution, pH 7.2, read-out: Minimum Inhibitory Concentration
# [26] = tested on: Pseudomonas aeruginosa KY 8510; assay: Agar dilution MIC, pH 7.2 (Table 2); assay type: cell-based; details: KY8510, P. aeruginosa KY 8510, produces kanamycin acetyltransferase, agar dilution, pH 7.2, read-out: Minimum Inhibitory Concentration
# [27] = tested on: Escherichia coli KY 8348; assay: Agar-dilution MIC, pH 8.0 (Table 1); assay type: cell-based
# Text: (§1) The former bacterium inactivates kanamycins and gentamicins by adenylation, and the latter inactivates gentamicins by acetylation.
# [28] = tested on: Escherichia coli KY 8327; assay: Agar-dilution MIC, pH 8.0 (Table 1); assay type: cell-based
# Text: as §1
# [29] = tested on: Escherichia coli KY 8349; assay: Agar dilution MIC, pH 7.2 (Table 2); assay type: cell-based; details: KY8349, E. coli KY 8349, produces neomycin-kanamycin phosphotransferase Type I, read-out: Minimum Inhibitory Concentration
# [30] = tested on: Proteus vulgaris ATCC 6897; assay: microbe, parasite or virus in culture; assay type: cell-based; details: ATCC6897, P. vulgaris ATCC 6897, agar-dilution, pH 8.0, read-out: Minimum Inhibitory Concentration
smiles,measurement,setting,value
"CNC[C@@H]1CC[C@@H](N)[C@@H](O[C@H]2[C@H](O)[C@@H](O[C@H]3OC[C@](C)(O)[C@H](NC)[C@H]3O)[C@H](NC(=O)[C@@H](O)CCN)C[C@@H]2N)O1 [Compound IV, 1-N-[L-(-)-α-hydroxy-γ-aminobutyryl] XK-62-2]",MIC,[1],0.004 µg/mL
same,MIC,[2],0.016 µg/mL
same,MIC,[3],0.4 µg/mL
same,MIC,[4],0.008 µg/mL
same,MIC,[5],1.56 µg/mL
same,LD50,[6],250 mg/kg
same,MIC,[7],2.08 µg/mL
same,MIC,[8],3.12 µg/mL
same,MIC,[9],3.12 µg/mL
same,MIC,[10],0.008 µg/mL
same,antibacterial activity in protection tests,"[11]; infections induced by resistant bacteria, versus gentamicin antibiotics and XK-62-2",much higher antibacterial activity than the gentamicin antibiotics and XK-62-2
same,retention of the α-hydroxy-γ-aminobutyryl group in vivo,"[11]; protection tests, in vivo",maintain the α-hydroxy-γ-aminobutyryl group in vivo
same,antibacterial activity (in words),[12],strong anti-bacterial activity
same,MIC,[13],0.1 µg/mL
same,MIC,[14],3.12 µg/mL
same,MIC,[15],0.2 µg/mL
same,MIC,[16],0.4 µg/mL
same,MIC,[17],0.1 µg/mL
same,MIC,[18],0.1 µg/mL
same,MIC,[19],0.004 µg/mL
same,MIC,[20],3.12 µg/mL
same,MIC,[21],0.1 µg/mL
same,MIC,[22],0.4 µg/mL
same,MIC,[23],12.5 µg/mL
same,MIC,[24],0.2 µg/mL
same,MIC,[25],0.2 µg/mL
same,MIC,[26],3.12 µg/mL
same,antibacterial activity (in words),"[27]; E. coli KY 8348, from Table 1",strong anti-bacterial activity
same,MIC,"[27]; Escherichia coli, KY8348, E. coli KY 8348, produces gentamicin acetyltransferase Type I, agar-dilution, pH 8.0, read-out: Minimum Inhibitory Concentration",0.004 µg/mL
same,antibacterial activity (in words),"[28]; E. coli KY 8327, from Table 1",strong anti-bacterial activity
same,MIC,"[28]; Escherichia coli, KY8327, E. coli KY 8327, produces gentamicin adenyltransferase, agar-dilution, pH 8.0, read-out: Minimum Inhibitory Concentration",0.016 µg/mL
same,MIC,[29],0.2 µg/mL
same,MIC,[30],0.065 µg/mL
